In one series the test system is Pyricularia oryzae. It is filed as in vivo. The conditions noted are these: 500 ppm, rice plants sprayed 24 h before contamination, graded 6 days after contamination.
The next series relates to Septoria tritici. Briefly: In vivo preventive test on Septoria tritici (leaf spot on wheat). The conditions noted are these: 500 ppm, wheat plants sprayed 24 h before contamination, graded 24 days after contamination. The procedure:
Wheat plants (“Scipion” variety), sown in starter cups on a 50/50 peat soil-pozzolana substrate and grown at 22° C., are treated at the 1-leaf stage (10 cm height) by spraying with the active ingredient prepared as described above. Plants, used as controls, are treated with the mixture of acetone/tween/DMSO/water not containing the active material. After 24 hours, the plants are contaminated by spraying the leaves with an aqueous suspension of cryopreserved Septoria tritici spores (500 000 spores per ml). The contaminated wheat plants are incubated for 72 hours at 18° C. and at 100% relative humidity, and then for 21 days at 90% relative humidity. Grading (% of efficacy) is carried out 24 days after the contamination, in comparison with the control plants.

Series [1] is described as follows: logP by HPLC on reversed phase columns (EEC directive 79/831 Annex V.A8). The series is classed as physicochemical. The conditions noted are these: method [a]: LC-MS at pH 2.7, 0.1% formic acid in water / acetonitrile; compounds of formula (I), Table 1.
The next series relates to Sphaerotheca fuliginea. The series is described as follows: In vivo preventive test on Sphaerotheca fuliginea (powdery mildew on cucurbits). The conditions noted are these: 500 ppm, gherkin plants sprayed 24 h before contamination, graded 12 days after contamination. The procedure: Gherkin plants (“Vert petit de Paris” variety), sown in starter cups on a 50/50 peat soil-pozzolana substrate and grown at 24° C., are treated at the Z11 cotyledon stage by spraying with the active ingredient prepared as described above. Plants, used as controls, are treated with the mixture of acetone/tween/DMSO/water not containing the active material. After 24 hours, the plants are contaminated by spraying the cotyledons with an aqueous suspension of Sphaerotheca fuliginea spores (100 000 spores per ml). The spores are collected from infected plants. […] Grading (% of efficacy) is carried out 12 days after the contamination, in comparison with the control plants.

The test system of a further series is Uromyces appendiculatus. The series is described as follows: In vivo preventive test on Uromyces appendiculatus (bean rust). The following applies: preventive, bean plants, dose of 500 ppm, grading 11 days after contamination. The method in brief:
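Saxa bean plants at the 2-leaf stage, grown at 24 °C, were sprayed with compound and inoculated 24 h later with Uromyces appendiculatus spores (150 000 spores per ml). Efficacy (%) was scored 11 days after inoculation relative to solvent-treated control plants.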

A further series relates to Puccinia recondita. Briefly: In vivo preventive test on Puccinia recondita (brown rust on wheat). The following applies: 500 ppm, wheat plants sprayed 24 h before contamination, graded 12 days after contamination. The method in brief:
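Wheat plants (cv. Scipion) at the 1-leaf stage were sprayed with compound, then inoculated 24 h later with P. recondita spores (100 000 spores/ml). Percent efficacy was graded 12 days after inoculation relative to solvent-treated controls.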

The test system of another series is Pyrenophora teres. The series is described as follows: In vivo preventive test on Pyrenophora teres (net blotch on barley). The conditions noted are these: graded 14 days after contamination; for Eff. %: 500 ppm, barley plants sprayed 24 h before contamination; for Efficacy: 100 ppm, barley plants, comparison with prior-art compound. Here is the method: Barley plants (“Plaisant” variety), sown in starter cups on a 50/50 peat soil-pozzolana substrate and grown at 22° C., are treated at the 1-leaf stage (10 cm height) by spraying with the active ingredient prepared as described above. Plants, used as controls, are treated with the mixture of acetone/tween/DMSO/water not containing the active material. After 24 hours, the plants are contaminated by spraying the leaves with an aqueous suspension of Pyrenophora teres spores (12 000 spores per ml). The spores are collected from a 12-day-old culture. […] Grading (% of efficacy) is carried out 14 days after the contamination, in comparison with the control plants.

In a further series the test system is Phakopsora pachyrhizi. Briefly: In vivo Phakopsora test (soybeans)/preventive. The conditions noted are these: 10 ppm, soybean plants, preventive, evaluated 7 days after inoculation. Here is the method:
To produce a suitable preparation of active compound, 1 part by weight of active compound is mixed with the stated amounts of solvent and emulsifier, and the concentrate is diluted with water to the desired concentration. To test for preventive activity, young plants are sprayed with the preparation of active compound at the stated rate of application. After the spray coating has dried on, the plants are inoculated with an aqueous spore suspension of the causal agent of soybean rust (Phakopsora pachyrhizi) and stay for 24 h without light in an incubation cabinet at approximately 24° C. and a relative atmospheric humidity of 95%. The plants remain in the incubation cabinet at approximately 24° C. and a relative atmospheric humidity of approximately 80% and a day/night interval of 12 h.

In the next series the test system is Alternaria brassicae. The series is described as follows: In vivo preventive test on Alternaria brassicae (leaf spot on radish). The conditions noted are these: 500 ppm, radish plants sprayed 24 h before contamination, graded 6 days after contamination. Here is the method:
Radish plants (“Pernod Clair” variety), sown in starter cups on a 50/50 peat soil-pozzolana substrate and grown at 17° C., are treated at the cotyledon stage by spraying with the active ingredient prepared as described above. Plants, used as controls, are treated with the mixture of acetone/tween/DMSO/water not containing the active material. After 24 hours, the plants are contaminated by spraying the cotyledons with an aqueous suspension of Alternaria brassicae spores (50 000 spores per ml). The spores are collected from a 15-day-old culture. The contaminated radish plants are incubated at 20° C. and at 100% relative humidity. Grading (% of efficacy) is carried out 6 days after the contamination, in comparison with the control plants.

The test system of another series is Botrytis cinerea. Briefly: In vivo preventive test on Botrytis cinerea (grey mould). The following applies: 500 ppm, gherkin plants sprayed 24 h before contamination, graded 4 to 5 days after contamination. The procedure:
Gherkin plants (“Vert petit de Paris” variety), sown in starter cups on a 50/50 peat soil-pozzolana substrate and grown at 24° C., are treated at the Z11 cotyledon stage by spraying with the active ingredient prepared as described above. Plants, used as controls, are treated with the mixture of acetone/tween/DMSO/water not containing the active material. After 24 hours, the plants are contaminated by spraying the cotyledons with an aqueous suspension of cryopreserved Botrytis cinerea spores (50 000 spores per ml). The spores are suspended in a nutrient solution composed of 10 g/L of PDB, 50 g/L of D-Fructose, 2 g/L of NH4NO3 and 1 g/L of KH2PO4. The contaminated gherkin plants are incubated at 17° C. and at 90% relative humidity.

The subject of series [2] is Fusarium nivale (var. majus). The series is described as follows: In vivo Fusarium nivale (var. majus) test (wheat)/preventive. The conditions noted are these: 500 ppm, wheat plants, preventive, evaluated 5 days after inoculation. The procedure:
• Solvent: 49 parts by weight of N,N-dimethylacetamide • Emulsifier: 1 part by weight of alkylaryl polyglycol ether To produce a suitable preparation of active compound, 1 part by weight of active compound or active compound combination is mixed with the stated amounts of solvent and emulsifier, and the concentrate is diluted with water to the desired concentration. To test for preventive activity, young plants are sprayed with the preparation of active compound or active compound combination at the stated rate of application. After the spray coating has been dried, the plants are slightly injured by using a sandblast and afterwards they are sprayed with a conidia suspension of Fusarium nivale (var. majus). The plants are placed in the greenhouse under a translucent incubation cabinet at a temperature of approximately 10° C. and a relative atmospheric humidity of approximately 100%.

The test system of the next series is Phytophthora infestans. It is filed as in vivo. The following applies: 500 ppm, tomato plants sprayed 24 h before contamination, graded 5 days after contamination.

The structures appear in SMILES notation.

On to `CC1Cc2c(NC(=S)c3cn(C)nc3C(F)F)cccc2C1(C)C` (centres unmarked) [Example 28], for which the Eff. % in the series on Pyricularia oryzae was found to be 93%; with Septoria tritici, 83%; in the series on Sphaerotheca fuliginea it was 100%; with Uromyces appendiculatus, 100%. Moreover, the logP in series [1] is 3.85[a].

As to `CC1c2c(NC(=O)c3cn(C)nc3C(F)F)cccc2C(C)(C)C1C` (centres unmarked) [Example 9], the Eff. % stood at 90% in the series on Septoria tritici; 100% with Puccinia recondita; 97% in the series with Pyrenophora teres; 84% in the series with Phakopsora pachyrhizi; 94% with Alternaria brassicae; 100% in the series with Botrytis cinerea. Further, the Eff. % in the series on Sphaerotheca fuliginea and in the series with Uromyces appendiculatus was 100% each time.

Turning to `Cc1nn(C)c(F)c1C(=O)Nc1cccc2c1CC(C)C2(C)C` (centres unmarked) [Example 8], the Eff. % is recorded as 83% in the series with Pyricularia oryzae, 100% with Puccinia recondita, 79% in the series on Alternaria brassicae and 100% in the series with Uromyces appendiculatus. The logP in series [1] was 3.52[a]. In the series with Pyrenophora teres, the Efficacy is 83%.

For `CCC1Cc2cccc(NC(=O)c3cn(C)nc3C(F)F)c2C1` (centres unmarked) [Example 27], the Eff. % is on record as 100% in the series with Septoria tritici; 100% with Puccinia recondita; 97% in the series on Pyrenophora teres; 79% with Alternaria brassicae; 100% with Sphaerotheca fuliginea; 100% with Uromyces appendiculatus. Further, the logP in series [1] was 3.35[a].

In the case of `CCC1Cc2c(NC(=O)c3c(C)nn(C)c3F)cccc2C1(C)C` (centres unmarked) [Example 37], the Eff. % in the series with Septoria tritici is listed as 71%; in the series with Puccinia recondita, 100%; in the series with Pyrenophora teres it was 83%; with Alternaria brassicae it was 90%; in the series on Sphaerotheca fuliginea it was 100%; with Uromyces appendiculatus, 100%. In addition, the logP in series [1] was 3.99[a].

`CC(C)OC1Cc2cccc(NC(=O)c3cn(C)nc3C(F)F)c2C1` (centres unmarked) [Example 2]: the Eff. % is recorded as 90% in the series with Septoria tritici, 100% in the series with Puccinia recondita, 75% in series [2] and 100% in the series with Uromyces appendiculatus.

Take `Cc1nn(C)c(C)c1C(=O)Nc1cccc2c1CC(C)(C)C2C` (centres unmarked) [Example 13]: the Eff. % is 83% in the series on Pyricularia oryzae; 100% in the series with Puccinia recondita; 75% in the series with Pyrenophora teres; 93% with Alternaria brassicae; 100% in the series on Uromyces appendiculatus. For the same molecule, the logP in series [1] was 3.13[a].

On to `CC(C)C1Cc2cccc(NC(=O)c3cn(C)nc3C(F)F)c2C1` (centres unmarked) [Example 3], for which the Eff. % with Septoria tritici is reported as 96%; in the series on Puccinia recondita it was 94%; in the series on Pyrenophora teres, 97%; in the series on Alternaria brassicae it was 92%; in the series with Botrytis cinerea, 85%; with Sphaerotheca fuliginea, 100%. Also, in the series on Uromyces appendiculatus, the Eff. % is 100%.

For `CC1Cc2c(NC(=O)c3cnn(C)c3C(F)(F)F)cccc2C1(C)C` (centres unmarked) [Example 17], the Eff. % in the series on Puccinia recondita is given as 98%; in the series with Botrytis cinerea it was 94%; in the series with Uromyces appendiculatus, 100%. For the same molecule, the logP in series [1] is 3.73[a].

As to `CC1c2cccc(NC(=O)c3cn(C)nc3C(F)F)c2CC1(C)C` (centres unmarked) [Example 5], the Eff. % in the series with Septoria tritici amounted to 91%; with Puccinia recondita, 100%; in the series with Phytophthora infestans it was 89%; in the series on Alternaria brassicae it was 71%; with Botrytis cinerea, 88%; in the series with Sphaerotheca fuliginea, 98%.

`Cc1nn(C)c(C)c1C(=O)Nc1cccc2c1C(C)C(C)C2(C)C` (centres unmarked) [Example 16]: the Eff. % worked out at 98% in the series on Puccinia recondita, 100% in the series on Botrytis cinerea and 100% with Uromyces appendiculatus. In addition, the logP in [1] is 3.15[a].

On to `CC1Cc2c(NC(=O)c3cn(C)nc3C(F)F)cccc2C1(C)C` (centres unmarked) [Example 6], for which the Eff. % was 95% in the series on Septoria tritici; 100% with Puccinia recondita; 96% in the series on Phakopsora pachyrhizi; 95% with Botrytis cinerea; 100% in the series on Sphaerotheca fuliginea; 98% in the series on Uromyces appendiculatus. Besides, the logP in series [1] was 3.55[a].

In the case of `Cc1nn(C)c(F)c1C(=O)Nc1cccc2c1C(C)C(C)C2(C)C` (centres unmarked) [Example 33], the Eff. % in the series with Septoria tritici was found to be 97%; in the series on Puccinia recondita it was 98%; in the series on Pyrenophora teres it was 97%; with Alternaria brassicae, 92%; with Botrytis cinerea, 100%; in the series with Sphaerotheca fuliginea it was 100%. This molecule yielded an Eff. % with Uromyces appendiculatus of 100%. In addition, in [1], the logP is 3.52[a]. Besides, the Efficacy result in the series with Pyrenophora teres is reported as “at least 80%”.

The record behind these values is patent publication US9249104B2, “Pyrazole indanyl carboxamides” (BAYER CROPSCIENCE AG, priority 2012, dated 2016).
